What was measured:
ADAMTS4 = biological target: T1, ADAMTS4 (Homo sapiens, UniProt O75173); assay: Selectivity assay for ADAMTS-7 modulators (FRET), ADAMTS4; assay type: biochemical; conditions: 50 nM enzyme (R&D 4307-AD), 1 μM Dabcyl/Edans FRET substrate, 120 min at 32° C.
T1 construct: purchased R&D 4307-AD
T1 sequence (O75173 213-685 limits assumed): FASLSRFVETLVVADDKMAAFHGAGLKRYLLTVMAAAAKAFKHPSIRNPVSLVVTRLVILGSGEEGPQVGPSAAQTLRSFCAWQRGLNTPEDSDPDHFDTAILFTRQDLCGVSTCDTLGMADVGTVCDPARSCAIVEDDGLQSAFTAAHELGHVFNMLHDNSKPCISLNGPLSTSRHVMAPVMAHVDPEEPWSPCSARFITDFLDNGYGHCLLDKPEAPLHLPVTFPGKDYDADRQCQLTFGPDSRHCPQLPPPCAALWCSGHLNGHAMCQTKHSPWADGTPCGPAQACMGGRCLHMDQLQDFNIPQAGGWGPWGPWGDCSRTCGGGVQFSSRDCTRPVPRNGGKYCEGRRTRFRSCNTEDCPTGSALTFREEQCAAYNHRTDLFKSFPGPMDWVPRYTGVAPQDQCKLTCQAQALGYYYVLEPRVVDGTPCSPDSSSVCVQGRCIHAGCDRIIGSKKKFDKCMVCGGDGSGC
Summary of the method: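 Enzyme in 50 mM Tris pH 7.5, 150 mM NaCl, 10 mM CaCl2, 0.05% Brij, preincubated with compound in DMSO; reaction started with FRET substrate. Fluorescence increase read after 120 min at 32° C; IC50 from percent inhibition versus compound concentration.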

[1] = biological target: T2, Purified recombinant ADAMTS-7 (rat prodomain/human catalytic domain, SEQ ID No. 01 or 02) (Homo sapiens, UniProt Q9UKP4); assay: Assay for ADAMTS-7 enzymatic activity (FRET substrate cleavage); assay type: biochemical; conditions: FRET substrate SEQ ID No. 11, 120 min at 32° C.; read-out: ADAMTS7-IC50
T2 construct: rat ADAMTS-7 signal peptide + prodomain (rat 1-217, Q1EHB3) (N); 2xStrep tag (C); 6xHis tag (C); made in house; host or cells: Expi293 cells
T2 sequence (Q9UKP4 237-537): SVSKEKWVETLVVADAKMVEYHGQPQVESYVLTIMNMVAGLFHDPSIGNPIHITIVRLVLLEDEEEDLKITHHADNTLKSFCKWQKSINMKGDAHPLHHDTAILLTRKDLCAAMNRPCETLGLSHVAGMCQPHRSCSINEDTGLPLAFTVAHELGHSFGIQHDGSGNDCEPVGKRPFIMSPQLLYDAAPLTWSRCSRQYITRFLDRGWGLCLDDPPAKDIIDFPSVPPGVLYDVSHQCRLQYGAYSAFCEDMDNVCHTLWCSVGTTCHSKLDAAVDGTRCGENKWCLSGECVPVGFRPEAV
Summary of the method: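 About 20 nM enzyme in 20 mM HEPES pH 8.0, 150 mM NaCl, 5 mM CaCl2, 0.004% Brij and 10 μM ZnCl2 was mixed with compound in DMSO and a QXL520-quenched FRET peptide from thrombospondin-1 (275-289). After 120 min at 32 °C, fluorescence was read at 485/520 nm. IC50 came from percent inhibition versus concentration.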

Molecule	IC50 (ADAMTS4) [nM]	IC50 [1] [nM]
Cn1ccnc1C1(CNC(=O)c2cnn(-c3ccccc3)n2)NC(=O)NC1=O (stereo not drawn) [Example 142, ent-N-{[4-(1-methyl-1H-imidazol-2-yl)-2,5-dioxoimidazolidin-4-yl]methyl}-2-phenyl-2H-1,2,3-triazole-4-carboxamide]	320	4
Cn1ccnc1C1(CNC(=O)c2cnn(-c3cc(F)c(F)c(F)c3)n2)NC(=O)NC1=O (stereo not drawn) [Example 146, ent-N-{[4-(1-methyl-1H-imidazol-2-yl)-2,5-dioxoimidazolidin-4-yl]methyl}-2-(3,4,5-trifluorophenyl)-2H-1,2,3-triazole-4-carboxamide]	108	3
O=C1NC(=O)C(CNC(=O)c2cnn(-c3ccc(F)cc3)n2)(c2cscn2)N1 (stereo not drawn) [Example 148, ent-N-{[2,5-dioxo-4-(1,3-thiazol-4-yl)imidazolidin-4-yl]methyl}-2-(4-fluorophenyl)-2H-1,2,3-triazole-4-carboxamide]	2500	12
O=C1NC(=O)[C@](CNC(=O)c2cnn(-c3ccc(F)cc3Cl)n2)(C2CC2)N1 [Example 151, 2-(2-chloro-4-fluorophenyl)-N-{[(4R)-4-cyclopropyl-2,5-dioxoimidazolidin-4-yl]methyl}-2H-1,2,3-triazole-4-carboxamide]	17000	320
O=C1NC(=O)[C@](CNC(=O)c2cnn(-c3ccc(Cl)cc3F)n2)(C2CC2)N1 [Example 160, 2-(4-chloro-2-fluorophenyl)-N-{[(4R)-4-cyclopropyl-2,5-dioxoimidazolidin-4-yl]methyl}-2H-1,2,3-triazole-4-carboxamide]	1000	60
O=C1NC(=O)[C@](CNC(=O)c2cnn(-c3ccc(Cl)cc3Cl)n2)(C2CC2)N1 [Example 161, N-{[(4R)-4-cyclopropyl-2,5-dioxoimidazolidin-4-yl]methyl}-2-(2,4-dichlorophenyl)-2H-1,2,3-triazole-4-carboxamide]	7100	130
ent-N-({4-[1-(difluoromethyl)-1H-pyrazol-5-yl]-2,5-dioxoimidazolidin-4-yl}methyl)-2-(4-fluorophenyl)-2H-1,2,3-triazole-4-carboxamide [Example 129]	1700	18

Reference: patent US20230027985A1, “SUBSTITUTED HYDANTOINAMIDES AS ADAMTS7 ANTAGONISTS” (Bayer Aktiengesellschaft, priority 2019, published 2023)
